Where a name gives a salt, the structure may show the parent alone.
Molecular target: α7-subtype of nicotinic receptors (Rattus norvegicus, UniProt Q05941)
Experiment: biochemical
Assay type: binding

α7-subtype of nicotinic receptors, sequence (Q05941 23-502): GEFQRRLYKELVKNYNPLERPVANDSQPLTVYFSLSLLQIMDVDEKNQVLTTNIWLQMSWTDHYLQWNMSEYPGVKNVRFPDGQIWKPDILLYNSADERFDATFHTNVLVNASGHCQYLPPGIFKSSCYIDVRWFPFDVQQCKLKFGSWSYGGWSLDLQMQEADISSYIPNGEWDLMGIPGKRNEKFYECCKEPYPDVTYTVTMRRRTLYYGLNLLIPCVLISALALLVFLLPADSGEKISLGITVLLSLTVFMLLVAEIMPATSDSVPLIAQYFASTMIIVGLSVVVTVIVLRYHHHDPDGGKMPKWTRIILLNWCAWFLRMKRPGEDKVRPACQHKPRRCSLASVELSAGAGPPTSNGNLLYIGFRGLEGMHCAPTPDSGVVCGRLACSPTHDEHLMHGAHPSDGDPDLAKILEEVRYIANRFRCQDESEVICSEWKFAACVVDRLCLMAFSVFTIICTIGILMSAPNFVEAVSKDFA

Structure (SMILES): c1cc2c(c(-c3nnc(N4CCN5CCC4CC5)o3)c1)OCO2 [Compound 1, 4-(5-Benzo[1,3]dioxol-4-yl-[1,3,4]oxadiazol-2-yl)-1,4-diaza-bicyclo[3.2.2]nonane fumaric acid salt]
- IC50: 22 nM
